{"source": "paper PMC7948796", "about": "“Mammalian-like type II glutaminyl cyclases in Porphyromonas gingivalis and other oral pathogenic bacteria as targets for treatment of periodontitis” (The Journal of Biological Chemistry, 2021)", "key": {"P. gingivalis ATCC 33277": {"system": "P. gingivalis ATCC 33277", "assay": "Growth curves, OD at 600 nm", "format": "cell-based, Porphyromonas gingivalis", "conditions": "laboratory strain ATCC 33277, Fig. 6A", "experimental": "(§1) In addition, we monitored the growth of two P. gingivalis strains ([…] and J374-1) by measuring the OD at 600 nm at different time points (it was not possible to make continuous measurements due to the anaerobic growth conditions of P. gingivalis), with the OD600 being recorded at 0 h, 16 h, 20 h, 24 h, and 42 h."}, "P. gingivalis J374-1": {"system": "P. gingivalis J374-1", "assay": "Growth curves, OD at 600 nm", "format": "cell-based, Porphyromonas gingivalis", "conditions": "clinical isolate J374-1, Fig. 6B", "experimental": "as §1"}, "[1]": {"system": "Streptococcus gordonii ATCC 10558", "assay": "MIC, micro-broth dilution", "format": "cell-based", "experimental": "(§2) The micro-broth dilution technique was used to determine MICs. After subcultivation of bacterial strains and checking of purity, a defined inoculum was added to Wilkins–Chalgren broth (Oxoid) supplemented with 10 μg/ml β-NAD (Sigma-Aldrich) containing the inhibitor. A twofold dilution series was made, starting from 2 mM (final concentration) of the inhibitor. The growth control contained 10% of the inhibitor dissolvent at 2 mM (0.01% DMSO in a buffer with 50 mM TRIS, pH 8, and 50 mM NaCl). After an incubation period of 42 h (18 h for the aerobic S. gordonii), the growth of microbes was analyzed by visual analysis of the turbidity. MIC represents the lowest concentration without visible turbidity. All experiments were made using independent replicates."}, "[2]": {"system": "Fusobacterium nucleatum ATCC 25586", "assay": "MIC, micro-broth dilution", "format": "cell-based", "experimental": "as §2"}, "[3]": {"system": "Prevotella intermedia ATCC 25611", "assay": "MIC, micro-broth dilution", "format": "cell-based", "experimental": "as §2"}, "[4]": {"system": "Tannerella forsythia ATCC 43037", "assay": "MIC, micro-broth dilution", "format": "cell-based", "experimental": "as §2"}, "HsQC": {"target": "HsQC (Homo sapiens, UniProt Q16769)", "sequence (Q16769 29-361)": "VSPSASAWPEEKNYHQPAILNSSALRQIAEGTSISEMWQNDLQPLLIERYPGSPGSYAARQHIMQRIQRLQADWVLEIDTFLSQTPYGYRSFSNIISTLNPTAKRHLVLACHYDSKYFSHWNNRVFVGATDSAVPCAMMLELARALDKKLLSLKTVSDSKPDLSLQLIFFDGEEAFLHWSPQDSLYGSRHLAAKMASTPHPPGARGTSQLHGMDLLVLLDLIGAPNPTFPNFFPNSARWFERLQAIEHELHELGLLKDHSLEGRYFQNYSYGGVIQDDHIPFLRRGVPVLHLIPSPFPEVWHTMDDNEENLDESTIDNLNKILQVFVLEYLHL", "assay": "QC inhibition assay with fluorogenic substrate H-Gln-AMC (Ki)", "format": "biochemical", "conditions": "read-out: Ki value for HsQC"}, "[5]": {"system": "Porpyhromonas gingivalis ATCC 33277", "assay": "MIC, micro-broth dilution", "format": "cell-based, Porphyromonas gingivalis", "experimental": "as §2"}, "[6]": {"system": "Porpyhromonas gingivalis M5-1-2 (clinical isolate)", "assay": "MIC, micro-broth dilution", "format": "cell-based, Porphyromonas gingivalis", "experimental": "as §2"}, "[7]": {"system": "Porpyhromonas gingivalis J374–1 (clinical isolate)", "assay": "MIC, micro-broth dilution", "format": "cell-based, Porphyromonas gingivalis", "experimental": "as §2"}, "PgQC": {"target": "PgQC (Porphyromonas gingivalis, UniProt Q7MT37)", "sequence (Q7MT37 entry or part of it)": "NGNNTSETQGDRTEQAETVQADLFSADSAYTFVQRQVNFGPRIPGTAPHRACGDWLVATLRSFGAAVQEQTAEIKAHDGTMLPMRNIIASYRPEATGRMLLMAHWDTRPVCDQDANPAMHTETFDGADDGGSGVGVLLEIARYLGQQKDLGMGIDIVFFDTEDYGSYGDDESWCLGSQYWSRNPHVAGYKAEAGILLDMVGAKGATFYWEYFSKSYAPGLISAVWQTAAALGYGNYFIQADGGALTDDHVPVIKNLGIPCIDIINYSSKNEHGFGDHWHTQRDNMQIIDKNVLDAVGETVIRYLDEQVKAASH", "assay": "QC inhibition assay with fluorogenic substrate H-Gln-AMC (Ki)", "format": "biochemical", "parameters": "His-tag (pET28a, thrombin-cleavable) (N, cleaved yes); made in house; host or cells: E. coli Rosetta(DE3)pLysS", "conditions": "Ki value for PgQC", "experimental": "Inhibitory constants were determined using concentrations of H-Gln-AMC varying from 1/4 KM to 2 KM and a final concentration of bacterial QC in a range between 25 nM and 50 nM. Progress curves were fitted to the general equation for competitive inhibition."}}, "note": "Entries after “also recorded” stand apart in the source; their conditions may differ."}
{"smiles": "Clc1ccc(CNc2cnc3nc[nH]c3c2)cc1", "note": "[S-316, N-(4-chlorobenzyl)imidazo[4,5-b]pyridin-6-amine]", "values": [{"measurement": "P. gingivalis growth inhibition, dependence on concentration", "setting": "P. gingivalis ATCC 33277", "value": "dose-dependent; also recorded: concentration-dependent manner"}, {"measurement": "P. gingivalis growth inhibition, dependence on concentration", "setting": "P. gingivalis J374-1", "value": "dose-dependent; also recorded: concentration-dependent manner"}, {"measurement": "Growth attenuation", "setting": "[1]; Gram-positive S. gordonii, no QC-like enzyme", "value": "did not result in growth attenuation"}, {"measurement": "MIC", "setting": "[1]; Streptococcus gordonii, ATCC10558, S. gordonii ATCC 10558, 18 h", "value": "> 2000", "unit": "µM"}, {"measurement": "MIC", "setting": "[2]; Fusobacterium nucleatum, ATCC25586, F. nucleatum ATCC 25586, 42 h", "value": "> 2000", "unit": "µM"}, {"measurement": "Growth attenuation", "setting": "[2]; Gram-negative F. nucleatum, no QC-like enzyme", "value": "did not result in growth attenuation"}, {"measurement": "MIC in words", "setting": "[3]; P. intermedia", "value": "submillimolar"}, {"measurement": "MIC", "setting": "[3]; Prevotella intermedia, ATCC25611, P. intermedia ATCC 25611, 42 h", "value": 125, "unit": "µM"}, {"measurement": "MIC in words", "setting": "[4]; T. forsythia", "value": "submillimolar"}, {"measurement": "MIC", "setting": "[4]; Tannerella forsythia, ATCC43037, T. forsythia ATCC 43037, 42 h", "value": 500, "unit": "µM"}, {"measurement": "Ki", "setting": "HsQC", "value": "655 ± 27", "unit": "nM"}, {"measurement": "MIC in words", "setting": "[5]; P. gingivalis laboratory strain", "value": "submillimolar"}, {"measurement": "MIC", "setting": "[5]; Porphyromonas gingivalis, ATCC33277, P. gingivalis ATCC 33277, 42 h", "value": 500, "unit": "µM"}, {"measurement": "MIC in words", "setting": "[6]; P. gingivalis clinical isolate", "value": "submillimolar"}, {"measurement": "MIC", "setting": "[6]; Porphyromonas gingivalis, P. gingivalis M5-1-2 clinical isolate, 42 h", "value": 250, "unit": "µM"}, {"measurement": "MIC in words", "setting": "[7]; P. gingivalis clinical isolate", "value": "submillimolar"}, {"measurement": "MIC", "setting": "[7]; Porphyromonas gingivalis, P. gingivalis J374–1 clinical isolate, 42 h", "value": 500, "unit": "µM"}, {"measurement": "Ki", "setting": "PgQC", "value": "53 ± 1.1", "unit": "nM"}]}
